Results published in ChEMBL document CHEMBL1201862, “PubChem BioAssay data set” (2004).
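Each compound was tested at five concentrations against cells in 96-well plates for 48 hours. GI50 marks 50% less growth.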 Active and inactive are the calls of the source. Cut-off read from the data, not from the text of the source: active = GI50 up to about 1.1 µM and inactive = higher.

Columns and labels:
Test in all cases: growth of human tumour cells (NCI), 48 h
LXFL 529 = tested on: LXFL 529
M19-MEL = tested on: M19-MEL
KM-20L2 = tested on: KM-20L2
XF498 = tested on: XF498
RXF 631 = tested on: RXF 631
HOP-18 = tested on: HOP-18
DMS-114 = tested on: DMS-114
SNB-78 = tested on: SNB-78

Measured: GI50

COc1ccc2c(c1)CC1c3c(cc4c(c3-2)OCO4)CCN1C (configuration not stated)
inactive: LXFL 529 36.5 µM | M19-MEL 21.4 µM | KM-20L2 30.8 µM | XF498 27.7 µM | RXF 631 24.5 µM | HOP-18 21.4 µM | DMS-114 24.3 µM | SNB-78 40.7 µM

O=S(=O)(O)c1ccc(-c2c3nc(c(-c4ccc(S(=O)(=O)O)cc4)c4ccc([nH]4)c(-c4ccc(S(=O)(=O)O)cc4)c4nc(c(-c5ccc(S(=O)(=O)O)cc5)c5ccc2[nH]5)C=C4)C=C3)cc1
inactive: LXFL 529 > 100 µM | M19-MEL > 100 µM | KM-20L2 > 100 µM | XF498 > 100 µM | RXF 631 80.9 µM | HOP-18 > 100 µM | DMS-114 40.2 µM | SNB-78 44.6 µM

C/C(=N/O)c1sc(-c2nc(C)c(/C(C)=N\O)s2)nc1C
inactive: LXFL 529 > 100 µM | M19-MEL > 100 µM | KM-20L2 > 100 µM | XF498 > 100 µM | RXF 631 > 100 µM | HOP-18 > 100 µM | DMS-114 > 100 µM | SNB-78 > 100 µM

CC(C)N(C(=O)C12C3C4C1C1C2C3C41C#N)C(C)C (configuration not stated)
inactive: LXFL 529 > 100 µM | M19-MEL > 100 µM | KM-20L2 > 100 µM | XF498 > 100 µM | RXF 631 > 100 µM | HOP-18 > 100 µM | DMS-114 > 100 µM | SNB-78 > 100 µM
